Assay results taken from the METLIN SMRT retention time set (Domingo-Almenara et al. 2019).

test: gradient 5% acetonitrile 3 min, to 50% in 2 min, to 85% in 15 min, held 3 min, 100 µL/min; details: column: Zorbax Extend-C18 2.1 x 50 mm; eluents: water / acetonitrile, 0.1% formic acid
Method in brief: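 Pure standards were analyzed in mixtures of ~100 molecules using HPLC coupled to a quadrupole time-of-flight mass spectrometer, in both positive and negative ionization mode. Separation used a Zorbax Extend-C18 column (2.1 × 50 mm, 1.8 μm) at 100 μL/min, with water and acetonitrile each containing 0.1% formic acid. Dead and dwell volumes were 40 μL and 900 μL, and data were collected over 3 months. Retention time was read from computationally picked adduct peaks, each inspected manually.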

| SMILES | RP-LC retention time [s] |
| --- | --- |
| Cc1ccc(C)c(-n2ccn(Cc3nc(-c4ccc(F)cc4)no3)c(=O)c2=O)c1 | 910 |
| O=C(Cc1cn2cc(Br)ccc2n1)N1CCSCC1 | 570 |
| O=C(Cn1cccc1-c1nnc(C2CCC2)o1)N1CCc2ccccc21 | 946 |
| COCc1cn(C2CN(C(=O)c3cnc(C)cn3)C2)nn1 | 592 |
| Cc1nn(-c2ccc(N3CCOCC3)nn2)c(C)c1CCC(=O)Nc1ccc(F)cc1F | 719 |
| Cc1nnsc1C(=O)N1CCC(CNC(=O)Cn2c(=O)oc3ccccc32)CC1 | 641 |
| Cc1nnc(SCC(=O)N2CCN(c3nnnn3-c3ccccc3)CC2)s1 | 653 |
| COc1ccc(NS(=O)(=O)c2cc3n(c2)CCCNC3=O)cc1 | 615 |
| CCOCCCNC(=O)C1CCCN(c2ccc(=O)n(-c3ccc(F)cc3)n2)C1 (configuration not stated) | 697 |
| Cc1ccc(-c2noc(Cn3ncn4nc(-c5cc(C)ccc5C)cc4c3=O)n2)cc1 | 878 |
| Clc1ccc(-c2nc(N3CCN(C4CCCCC4)CC3)c3ccccc3n2)cc1 | 562 |
| Cc1ccc(N(C)C(=O)C2CCCN(S(=O)(=O)c3cc(-c4noc(C)n4)cs3)C2)cc1 (configuration not stated) | 992 |
| Cc1cn(C2CC(O)C(CO)O2)c(=O)n(Cc2ccccc2)c1=O (configuration not stated) | 697 |
| CCOc1ccccc1NC(=O)Cn1nnc(C(=O)Nc2cc(Cl)ccc2OC)c1N | 970 |
| COc1cc(OC)cc(N2C(=O)C3N=NN(Cc4nc(-c5cccc(Cl)c5)no4)C3C2=O)c1 (configuration not stated) | 1020 |
| CCOc1ccccc1NC(=O)N1CCCC(Cn2c(C3CC3)nc3cccnc32)C1 (configuration not stated) | 725 |
| CCOC(=O)c1cccc(NC(=O)CSc2ccc(N3CCCC(C(=O)NC4CC4)C3)nn2)c1 (configuration not stated) | 680 |
| Cc1ccccc1Cn1cc(-c2ccncc2)cc1C(=O)NC(C)c1cccnc1 (configuration not stated) | 579 |
| O=C(NCc1ccc(-c2noc(/C=C/c3ccccc3)n2)s1)C1CC1 | 915 |
| Cc1ccc(C)c(NC(=O)N2CCC(n3c(C)nc4cccnc43)CC2)c1 | 638 |
| CC(=O)Nc1ccc(-n2cnc(C(=O)NCc3ccccc3F)c2)nc1 | 663 |
| O=c1[nH]nc(-c2cc(-c3ccccc3)nc3ccccc23)o1 | 985 |
| O=C(c1ccco1)C(C(c1cccc(Cl)c1)N1CCOCC1)N1CCOCC1 (configuration not stated) | 782 |

| SMILES | RP-LC retention time [s] |
| --- | --- |
| CCOC(=O)c1c(C)[nH]c(C(=O)N2CCCC(C(=O)NCc3ccc(F)cc3)C2)c1C (configuration not stated) | 803 |
| COc1ccc(CNC(=O)Nc2ccc(-c3nc(-c4ccccc4)co3)cc2)cc1 | 1050 |
| CC1CO/C(=C2\C(=O)OCC2C)C1 (configuration not stated) | 812 |
| O=C(NCc1ccccc1)N1[C@H]2CC[C@@H]1c1cnc(-c3ccccc3)nc1C2 | 865 |
| C=CCNC(=O)c1cnn(-c2cc(-c3nc(C(C)(C)C)no3)ccn2)c1C | 1020 |
| Cc1ccc(CNC(=O)C2CCCN2S(=O)(=O)c2cc3c(cc2C)NC(=O)C(C)O3)cc1 (configuration not stated) | 824 |
| COc1ccc(N2CC(C(=O)N3CCN(c4ccccn4)CC3)CC2=O)cc1 (configuration not stated) | 582 |
| CN1C(=O)c2cccn2CC1C(=O)NCC1CCCCC1 (configuration not stated) | 727 |
| Cc1ccc(NS(=O)(=O)c2cc3c(s2)CCN(C(=O)C2CCC2)C3)cc1Cl | 1010 |
| Oc1ccc2c(ccc3[nH]cnc32)c1 | 622 |
| Cc1ccc(-c2noc(Cn3ccn(-c4ccccc4)c(=O)c3=O)n2)cc1C | 897 |
| CCCNC(=O)C1CCN(c2nccnc2Sc2cccc(C)c2)CC1 | 946 |
| CC1=Nc2ccccc2N=C(NC(=O)Nc2cccc(Cl)c2)C1c1ccc(Cl)cc1 (configuration not stated) | 1170 |
| CC1CCCN(CC2CCN(S(=O)(=O)Cc3ccccc3F)CC2)C1 (configuration not stated) | 650 |
| CC(C)Cn1c(=O)c2ccccc2n(Cc2nc(-c3ccc(Br)cc3)no2)c1=O | 1300 |
| COc1ccc(C)cc1NC(=O)c1nc(C)oc1C | 1020 |
| Cc1ccc(NC(=O)c2nc(C(C)C)oc2C)cc1F | 1140 |
| O=C(Nc1cnc(N2CCCCCC2)nc1)c1cc(F)ccc1F | 967 |
| Clc1ccc(-c2ccc(CNCC3CCNCC3)o2)c(Cl)c1 | 611 |
| CCCN1CCN(C(=O)c2c(C)sc3ccn(CC(C)C)c(=O)c23)CC1 | 618 |
| Cn1cccc1C(=O)C(=O)NCc1ccc(Cl)cc1 | 906 |
| O=C(Nc1ccc(F)cc1F)N1CCC(N2CCN(Cc3ccc(F)cc3)C2=O)CC1 | 802 |
| O=C(NC1CC1)C1CCc2sc(C(=O)N3CCCC3)cc2C1 (configuration not stated) | 654 |

| SMILES | RP-LC retention time [s] |
| --- | --- |
| Cc1cc(=O)n(CC(=O)NCc2ccccc2Cl)c(N2CCOCC2)n1 | 662 |
| O=C(c1cn(-c2ccc(S(=O)(=O)N3CCOCC3)cc2)cn1)N1CCN(c2ncccn2)CC1 | 666 |
| Cn1cc(C(=O)N2CCCC(c3nnc4n3CCN(C3CCCC3)C4)C2)cn1 (configuration not stated) | 553 |
| CCNc1nc(Nc2cc(F)c(C(=O)N3CCOCC3)cc2OC)ncc1C(F)(F)F | 915 |
| O=C(CCc1nc2ccccc2s1)N1[C@H]2CC[C@@H]1c1cnc(-c3ccccc3)nc1C2 | 902 |
| Cc1nc(-c2ccc3c(c2)n(CC(=O)NC2CC2)c(=O)n3C(C)C)no1 | 685 |
| Cc1nc(CSc2ncnc3sc(C)c(C)c23)cs1 | 988 |
| CC(=O)c1ccc(NC(=O)Cn2ccc3ccc(-c4nnc(C)o4)cc32)cc1 | 743 |
| CC(C)CNC(=O)CCc1nc2ccccc2n(CC(=O)NCc2ccccc2Br)c1=O | 847 |
| CC1CCN(C(=O)c2ccc(OCC3CCN(C(=O)c4ccc(C#N)cc4)CC3)cc2)CC1 | 957 |
| Oc1cc(-n2cccn2)c(O)cc1-n1cccn1 | 868 |
| CCCN1C(=O)COc2ccc(-c3noc(-c4ccc(F)c(F)c4)n3)cc21 | 1270 |
| COCCOC1CCC12CCN(C(=O)c1cc(C)oc1C)CC2 (configuration not stated) | 811 |
| Cc1ccc(NC(=O)C(C)Oc2cc(C(F)(F)F)c3c(C)nn(C)c3n2)cc1C (configuration not stated) | 586 |
| CSc1ccc(NC(=O)N2CCc3c(c(-c4nc(C5CC5)no4)nn3C)C2)cc1 | 874 |
| COCCCN(CC(=O)N1CCc2sccc2C1COc1ccccc1F)C(C)=O (configuration not stated) | 764 |
| CS(=O)(=O)N1CCC(C(=O)Nc2ccc(Br)cc2F)Oc2ccccc21 (configuration not stated) | 990 |
| Cc1nc2c(NC(=O)c3ccc(Cl)cc3)cccn2n1 | 835 |
| Cn1nc2c(c1NC(=O)C1(c3ccc(Cl)cc3)CCCC1)CCC2 | 907 |
| N#Cc1cccc(NC(=O)C2CCN(S(=O)(=O)c3cc(C(=O)N4CCCC4)cs3)CC2)c1 | 995 |
| COCCn1c(-c2cccc(OC)c2)cnc1NC(=O)Nc1cccc(Cl)c1 | 714 |
